Reference: ChEMBL document CHEMBL4346710, “Discovery of 7H-pyrrolo[2,3-d]pyrimidine derivatives as selective covalent irreversible inhibitors of interleukin-2-inducible T-cell kinase (Itk)” (Eur J Med Chem, 2019)

Columns and labels:
MOLT-4 = assay: Growth inhibition of human MOLT4 cells incubated for 72 hrs by CellTiter-Glo luminescent cell viability assay; type: functional; conditions: MOLT-4, 72 h
[1] = target: T1, Tyrosine-protein kinase ITK/TSK (Homo sapiens) (UniProt Q08881); assay: Inhibition of recombinant human N-terminal His6-tagged ITK (352 to 617 residues) expressed in baculovirus infected Sf21 insect cells assessed as inactivation rate constant using STK substrate by HTRF assay
T1 sequence (whole entry): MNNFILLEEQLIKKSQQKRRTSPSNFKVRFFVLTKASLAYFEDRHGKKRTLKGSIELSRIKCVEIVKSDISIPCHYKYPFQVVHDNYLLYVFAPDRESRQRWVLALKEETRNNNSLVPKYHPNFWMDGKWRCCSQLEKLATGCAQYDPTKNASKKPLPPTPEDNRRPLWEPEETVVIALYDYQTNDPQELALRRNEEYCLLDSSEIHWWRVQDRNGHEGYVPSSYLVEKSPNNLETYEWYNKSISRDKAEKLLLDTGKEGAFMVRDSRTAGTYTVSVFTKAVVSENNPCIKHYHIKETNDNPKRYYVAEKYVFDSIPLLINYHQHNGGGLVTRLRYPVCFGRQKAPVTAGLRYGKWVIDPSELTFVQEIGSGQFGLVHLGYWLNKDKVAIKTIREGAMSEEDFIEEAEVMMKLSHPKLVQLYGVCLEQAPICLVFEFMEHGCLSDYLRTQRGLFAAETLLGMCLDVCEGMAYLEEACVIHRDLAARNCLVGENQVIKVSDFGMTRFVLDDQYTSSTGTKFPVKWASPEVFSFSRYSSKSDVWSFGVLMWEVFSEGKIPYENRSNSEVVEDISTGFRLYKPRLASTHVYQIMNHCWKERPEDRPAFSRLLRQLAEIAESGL

[2] = target: Tyrosine-protein kinase ABL1 (Homo sapiens) (UniProt P00519); assay: Inhibition of recombinant full length human His-tagged ABL1 cytoplasmic domain expressed in baculovirus expression system assessed as enzyme residual activity at 0.4 uM using fluorophore-labeled tyrosine-2 peptide as substrate incubated for 60 mins by Z'-LYTE assay relative to control
Tyrosine-protein kinase ABL1 (Homo sapiens), sequence (P00519 whole entry, the tested form may be a part): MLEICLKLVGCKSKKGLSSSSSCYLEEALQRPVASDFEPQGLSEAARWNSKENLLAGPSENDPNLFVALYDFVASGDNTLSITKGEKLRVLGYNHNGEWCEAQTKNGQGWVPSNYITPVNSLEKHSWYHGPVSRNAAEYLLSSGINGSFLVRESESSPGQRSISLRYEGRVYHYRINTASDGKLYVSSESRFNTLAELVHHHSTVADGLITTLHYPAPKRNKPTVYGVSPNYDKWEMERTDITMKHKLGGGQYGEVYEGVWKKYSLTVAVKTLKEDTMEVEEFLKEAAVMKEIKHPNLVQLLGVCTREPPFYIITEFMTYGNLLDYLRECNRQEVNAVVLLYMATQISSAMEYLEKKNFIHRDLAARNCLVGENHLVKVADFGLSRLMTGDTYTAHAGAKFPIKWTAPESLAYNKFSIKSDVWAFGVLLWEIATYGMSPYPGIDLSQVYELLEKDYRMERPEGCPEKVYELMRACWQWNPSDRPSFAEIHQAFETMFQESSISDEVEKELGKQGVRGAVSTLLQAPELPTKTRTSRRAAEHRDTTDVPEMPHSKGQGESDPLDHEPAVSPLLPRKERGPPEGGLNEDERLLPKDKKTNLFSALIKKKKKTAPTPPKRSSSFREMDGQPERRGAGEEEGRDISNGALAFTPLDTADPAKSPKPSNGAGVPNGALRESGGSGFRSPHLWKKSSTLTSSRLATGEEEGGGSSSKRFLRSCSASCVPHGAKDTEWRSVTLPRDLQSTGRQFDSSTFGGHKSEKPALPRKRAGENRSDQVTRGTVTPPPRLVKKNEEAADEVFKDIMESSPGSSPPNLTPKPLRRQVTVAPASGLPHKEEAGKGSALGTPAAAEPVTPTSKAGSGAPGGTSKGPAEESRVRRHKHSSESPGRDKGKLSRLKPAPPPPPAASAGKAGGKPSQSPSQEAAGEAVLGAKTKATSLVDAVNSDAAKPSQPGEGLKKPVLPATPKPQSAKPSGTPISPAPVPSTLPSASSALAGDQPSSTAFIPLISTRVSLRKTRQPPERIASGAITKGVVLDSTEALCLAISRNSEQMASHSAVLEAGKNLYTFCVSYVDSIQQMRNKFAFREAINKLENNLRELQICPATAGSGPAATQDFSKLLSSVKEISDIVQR

[3] = target: Serine/threonine-protein kinase Sgk1 (Homo sapiens) (UniProt O00141); assay: Inhibition of recombinant human GST-tagged SGK1 catalytic domain (60 to 431 residues) expressed in baculovirus expression system assessed as enzyme residual activity at 0.4 uM using fluorophore-labeled serine/threonine-6 peptide as substrate incubated for 60 mins by Z'-LYTE assay relative to control
Serine/threonine-protein kinase Sgk1 (Homo sapiens), sequence (O00141 whole entry, the tested form may be a part): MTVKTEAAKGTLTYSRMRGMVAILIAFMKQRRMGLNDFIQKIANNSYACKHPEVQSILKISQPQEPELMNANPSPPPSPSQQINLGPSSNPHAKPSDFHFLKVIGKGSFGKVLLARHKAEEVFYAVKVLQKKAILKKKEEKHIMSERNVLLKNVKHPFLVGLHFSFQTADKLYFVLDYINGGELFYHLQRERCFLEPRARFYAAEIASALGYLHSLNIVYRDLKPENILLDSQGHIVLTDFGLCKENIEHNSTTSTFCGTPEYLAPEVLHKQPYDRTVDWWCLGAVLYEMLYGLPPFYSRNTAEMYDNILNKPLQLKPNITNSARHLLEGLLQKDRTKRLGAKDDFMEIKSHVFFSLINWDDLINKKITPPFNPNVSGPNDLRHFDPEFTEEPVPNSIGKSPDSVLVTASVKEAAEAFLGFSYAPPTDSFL

[4] = target: Tyrosine-protein kinase ZAP-70 (Homo sapiens) (UniProt P43403); assay: Inhibition of recombinant full length human His-tagged ZAP70 cytoplasmic domain expressed in baculovirus expression system assessed as enzyme residual activity at 0.4 uM using fluorophore-labeled tyrosine-07 peptide as substrate incubated for 60 mins by Z'-LYTE assay relative to control
Tyrosine-protein kinase ZAP-70 (Homo sapiens), sequence (P43403 whole entry, the tested form may be a part): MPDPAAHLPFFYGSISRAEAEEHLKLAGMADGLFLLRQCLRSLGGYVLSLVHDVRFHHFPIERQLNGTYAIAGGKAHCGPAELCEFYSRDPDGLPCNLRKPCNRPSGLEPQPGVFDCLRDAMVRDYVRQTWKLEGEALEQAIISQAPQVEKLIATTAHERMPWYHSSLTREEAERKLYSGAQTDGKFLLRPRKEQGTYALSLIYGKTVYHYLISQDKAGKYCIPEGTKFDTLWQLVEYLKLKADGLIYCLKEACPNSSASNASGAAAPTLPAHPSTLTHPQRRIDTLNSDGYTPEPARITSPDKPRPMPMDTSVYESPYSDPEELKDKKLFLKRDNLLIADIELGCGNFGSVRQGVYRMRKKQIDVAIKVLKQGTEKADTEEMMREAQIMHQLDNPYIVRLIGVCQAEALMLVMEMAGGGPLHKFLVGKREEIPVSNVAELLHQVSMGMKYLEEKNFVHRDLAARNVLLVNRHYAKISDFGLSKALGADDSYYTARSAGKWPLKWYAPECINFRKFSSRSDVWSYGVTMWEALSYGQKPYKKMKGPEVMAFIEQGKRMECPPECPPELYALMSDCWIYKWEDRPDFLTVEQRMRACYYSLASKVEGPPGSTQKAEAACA

- GI50 (MOLT-4): 167 nM
- K [1]: 0.038 min⁻¹
- Activity [2]: 11.7%
- Activity [3]: 97%
- Activity [4]: 95%
Structure (SMILES): C=CC(=O)N1CCC(Oc2nc(Nc3ccc(N4CCOCC4)cc3)nc3[nH]cc(-c4cncc(NC)n4)c23)CC1
